According to US9018395B2, “Pyrazolopyridine and pyrazolopyrimidine derivatives as melanocortin-4 receptor modulators” (Université de Montréal, priority 2011, dated 2015):
Non-standard residues stand in square brackets, D forms with d. Nle = CCCC[C@H](N)C(=O)O

Key:
[1] = molecular target: T1, wild-type human melanocortin 4 receptor (WT-hMC4R) (Homo sapiens, UniProt P32245); assay: Cyclic AMP assay (HTRF), antagonist competition against NDP-α-MSH; type: cell-based; conditions: HEK293T cells expressing double-tagged WT-hMC4R; cAMP accumulation; 1 hour compound then 4 nM NDP-α-MSH 30 min
T1 construct: expressed in transfected cells; cDNA from UMR cDNA resource center
Procedure, shortened: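 HEK293T cells stably expressing N-terminal 3xHA, C-terminal venus-YFP tagged WT-hMC4R, in D-PBS with 0.75 mM IBMX; compound (0.01 nM-10 μM) 1 h at 37° C, then 4 nM NDP-α-MSH 30 min. cAMP by HTRF competitive immunoassay; IC50 from sigmoidal variable-slope fit.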

[2] = in vivo; cited from earlier work
[3] = tested on: MC4R/MC5R; conditions: cited from earlier work
[4] = tested on: MC4R; conditions: cited from earlier work
[5] = tested on: MC4R/MC3R; conditions: cited from earlier work

T1 sequence (P32245 whole entry): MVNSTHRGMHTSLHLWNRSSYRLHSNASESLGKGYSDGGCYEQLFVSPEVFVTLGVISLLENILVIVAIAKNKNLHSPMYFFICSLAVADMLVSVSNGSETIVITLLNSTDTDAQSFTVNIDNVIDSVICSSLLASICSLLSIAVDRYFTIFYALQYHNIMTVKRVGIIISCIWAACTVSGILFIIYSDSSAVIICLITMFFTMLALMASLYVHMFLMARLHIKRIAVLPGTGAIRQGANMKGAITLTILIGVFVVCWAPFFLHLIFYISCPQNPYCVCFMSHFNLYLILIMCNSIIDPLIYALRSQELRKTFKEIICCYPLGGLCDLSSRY

Compound	IC50 [1]	also measured
CCCNCCCc1c(-c2ccc(OC)cc2)nn2ccc(C(=O)N(CCC(C)C)CCC(C)C)cc12 [Example 163]	1000 to 5000 nM	–
COc1ccc(-c2nn3ccc(C(=O)N(CCC(C)C)CCC(C)C)cc3c2CCCN2CCCCC2)cn1 [Example 164, N,N-diisopentyl-2-(6-methoxypyridin-3-yl)-3-(3-(piperidin-1-yl)propyl)pyrazolo[1,5-a]pyridine-5-carboxamide]	< 500 nM	–
CN=C(c1ccn2nc(-c3ccccc3)c(CCCN3CCCCC3)c2c1)N(CCC(C)C)CCC(C)C [Example 165, N,N-diisopentyl-N′-methyl-2-phenyl-3-(3-(piperidin-1-yl)propyl)pyrazolo[1,5-a]pyridine-5-carboximidamide]	< 500 nM	–
CCOc1ccc(-c2nn3ccc(C(=O)N(CCC(C)C)CCC(C)C)cc3c2CCCN2CCOCC2)cc1 [Example 166]	1000 to 5000 nM	–
CC(C)CCN(CCC(C)C)C(=O)c1ccn2nc(C(=O)N3CCOCC3)c(/C=C/CN3CCCCC3)c2c1 [Example 167]	5000 to 15000 nM	–
COc1ccc(-c2nn3ccc(C(=O)N(CCC(C)C)CCC(C)C)cc3c2CCCN2CCCCC2C)cc1 (stereo not shown) [Example 168]	500 to 1000 nM	–
COc1ccc(-c2nn3ccc(C(=O)N(CCC(C)C)CCC(C)C)cc3c2/C=C/CN2CCCCC2C)cc1 (stereo not shown) [Example 169]	500 to 1000 nM	–
Ac-Nle-Gly-Lys-D-Nal(2)-Arg-Trp-Gly-NH(2)	–	blood-brain barrier crossing [2]: crossed the blood-brain barrier; selectivity for MC4R as compared to MC5R [3]: 109 fold; activity in vivo [4]: active in vivo; selectivity for MC4R as compared to MC3R [5]: 34 fold
Ac-Nle-Gly-Lys-D-Phe-Arg-Trp-Gly-NH(2) (Ac-[Nle]GK[dF]RWG-NH2; SMILES CCCC[C@H](NC(C)=O)C(=O)NCC(=O)N[C@@H](CCCCN)C(=O)N[C@H](Cc1ccccc1)C(=O)N[C@@H](CCCNC(=N)N)C(=O)N[C@@H](Cc1c[nH]c2ccccc12)C(=O)NCC(N)=O)	–	blood-brain barrier crossing [2]: crossed the blood-brain barrier; selectivity for MC4R as compared to MC5R [3]: 110 fold; activity in vivo [4]: active in vivo; selectivity for MC4R as compared to MC3R [5]: 90 fold
N,N-Diisopentyl-2-(4-methoxyphenyl)-3-(3-(piperidin-1-yl)propyl)pyrazolo[1,5-a]pyrimidine-5-carboxamide [Example 89]	1000 to 5000 nM	–
